According to PubChem BioAssay AID1918938 (Molecular Pharmacology Branch, DTP, NCI, 2023):

Tested on: 556581-035-R-J1-PDC complex spheroid viability
Experiment: Anticancer human tumor 556581-035-R-J1-PDC patient-derived ovarian carcinoma cell line growth inhibition
Conditions: for IC50: curve of first compound; for viability, T/C: stronger effect = lower value
How it was run: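 Drug combinations with the LSD1 inhibitor iadademstat tested on tumor cells co-cultured as spheroids with endothelial cells and mesenchymal stem cells. Concentrations descended in half-log increments from clinical Cmax or 10 microM.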

[1] = second compound 0.1 µM, first compound 0.0316 µM
[2] = second compound 0.1 µM, first compound 0.1 µM
[3] = second compound 0.1 µM, first compound 0.316 µM
[4] = second compound 0.1 µM, first compound 1 µM
[5] = second compound 0.1 µM, first compound 3.16 µM
[6] = second compound 0.1 µM, first compound 10 µM
[7] = second compound 0.316 µM, first compound 0.0316 µM
[8] = second compound 0.316 µM, first compound 0.1 µM
[9] = second compound 0.316 µM, first compound 0.316 µM
[10] = second compound 0.316 µM, first compound 1 µM
[11] = second compound 0.316 µM, first compound 3.16 µM
[12] = second compound 0.316 µM, first compound 10 µM
[13] = second compound 1 µM, first compound 0.0316 µM
[14] = second compound 1 µM, first compound 0.1 µM
[15] = second compound 1 µM, first compound 0.316 µM
[16] = second compound 1 µM, first compound 1 µM
[17] = second compound 1 µM, first compound 3.16 µM
[18] = second compound 1 µM, first compound 10 µM
[19] = second compound 3.16 µM, first compound 0.0316 µM
[20] = second compound 3.16 µM, first compound 0.1 µM
[21] = second compound 3.16 µM, first compound 0.316 µM
[22] = second compound 3.16 µM, first compound 1 µM
[23] = second compound 3.16 µM, first compound 3.16 µM
[24] = second compound 3.16 µM, first compound 10 µM
[25] = second compound 10 µM, first compound 0.0316 µM
[26] = second compound 10 µM, first compound 0.1 µM
[27] = second compound 10 µM, first compound 0.316 µM
[28] = second compound 10 µM, first compound 1 µM
[29] = second compound 10 µM, first compound 3.16 µM
[30] = second compound 10 µM, first compound 10 µM
[31] = second compound 0.1 µM, first compound 0.00316 µM
[32] = second compound 0.1 µM, first compound 0.01 µM
[33] = second compound 0.316 µM, first compound 0.00316 µM
[34] = second compound 0.316 µM, first compound 0.01 µM
[35] = second compound 1 µM, first compound 0.00316 µM
[36] = second compound 1 µM, first compound 0.01 µM
[37] = second compound 3.16 µM, first compound 0.00316 µM
[38] = second compound 3.16 µM, first compound 0.01 µM
[39] = second compound 10 µM, first compound 0.00316 µM
[40] = second compound 10 µM, first compound 0.01 µM
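Also: spheroids exposed to agents for seven days.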
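For viability, T/C in this document: 100% = DMSO vehicle control wells.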

| Compound | IC50 (second compound 0.1 µM) [nM] | IC50 (second compound 0.316 µM) [nM] | IC50 (second compound 1 µM) [nM] | IC50 (second compound 3.16 µM) [nM] | IC50 (second compound 10 µM) [nM] | viability, T/C [1] [%] | viability, T/C [2] [%] | viability, T/C [3] [%] | viability, T/C [4] [%] | viability, T/C [7] [%] | viability, T/C [8] [%] | viability, T/C [9] [%] | viability, T/C [10] [%] | viability, T/C [13] [%] | viability, T/C [14] [%] | viability, T/C [15] [%] | viability, T/C [16] [%] | viability, T/C [19] [%] | viability, T/C [20] [%] | viability, T/C [21] [%] | further results |
| --- | --- | --- | --- | --- | --- | --- | --- | --- | --- | --- | --- | --- | --- | --- | --- | --- | --- | --- | --- | --- | --- |
| CC(C)c1c(-c2ccccc2)nc2c(C#N)c[nH]n2c1=O + NC1CC1c1ccc(-c2cccc(O)c2)cc1 | > 10000 | > 10000 | > 10000 | > 10000 | > 10000 | 100 | 103 | 95.8 | 89.3 | 90.6 | 82.5 | 86.4 | 85.2 | 96.4 | 101 | 79.7 | 76.5 | 85.6 | 82.5 | 84.8 | viability, T/C [5]: 88.8%; viability, T/C [6]: 64%; viability, T/C [11]: 73.6%; viability, T/C [12]: 79.9%; viability, T/C [17]: 69.8%; viability, T/C [18]: 60.2%; viability, T/C [22]: 86.7%; viability, T/C [23]: 77.9%; viability, T/C [24]: 69.3%; viability, T/C [25]: 92.6%; viability, T/C [26]: 91.2%; viability, T/C [27]: 89.4%; viability, T/C [28]: 75.4%; viability, T/C [29]: 66.1%; viability, T/C [30]: 59.6% |
| CC1COCCN1c1cc(-c2ccnn2C)c2ccnc(-c3ccn[nH]3)c2n1 (stereo not given) + NC1CC1c1ccc(-c2cccc(O)c2)cc1 | 5.22 | 4.45 | 3.3 | 5.31 | 8.98 | 33.5 | 25.4 | 21.7 | 10.2 | 33.4 | 23.8 | 23 | 10.6 | 34.3 | 26.4 | 26.1 | 9.41 | 38.5 | 29.2 | 26.9 | viability, T/C [31]: 54.8%; viability, T/C [32]: 44%; viability, T/C [33]: 51.2%; viability, T/C [34]: 47.9%; viability, T/C [35]: 49.5%; viability, T/C [36]: 47.1%; viability, T/C [37]: 54.6%; viability, T/C [38]: 44.5%; viability, T/C [22]: 11%; viability, T/C [39]: 55.3%; viability, T/C [40]: 49.9%; viability, T/C [25]: 36.4%; viability, T/C [26]: 29.7%; viability, T/C [27]: 26%; viability, T/C [28]: 25.6% |
| COc1ccc([C@@H](O)c2cc(-c3ncnc4cc(N5CCOCC5)ccc34)c(F)cc2Cl)nn1 + NC1CC1c1ccc(-c2cccc(O)c2)cc1 | 853 | 932 | 1000 | 621 | 1050 | 102 | 87 | 68.2 | 46.3 | 85.2 | 75.9 | 62.7 | 48.4 | 82.5 | 79.8 | 55.1 | 52.6 | 82.8 | 84.2 | 64.5 | viability, T/C [5]: 34.5%; viability, T/C [6]: 26.9%; viability, T/C [11]: 37.9%; viability, T/C [12]: 27.3%; viability, T/C [17]: 38.7%; viability, T/C [18]: 25.3%; viability, T/C [22]: 39.7%; viability, T/C [23]: 34%; viability, T/C [24]: 30.1%; viability, T/C [25]: 97.4%; viability, T/C [26]: 79.6%; viability, T/C [27]: 64.8%; viability, T/C [28]: 48.5%; viability, T/C [29]: 41.3%; viability, T/C [30]: 24.4% |
| Nc1ncn(C2CC(O)C(CO)O2)c(=O)n1 (stereo not given) + NC1CCC(NC2CC2c2ccccc2)CC1 | > 1000 | > 1000 | > 1000 | > 1000 | > 1000 | 87.2 | 80 | 79.3 | 77.2 | 84 | 82.2 | 79.1 | 77.7 | 89.5 | 75.2 | 71.8 | 76.8 | 82.7 | 67.2 | 80.5 | viability, T/C [31]: 96%; viability, T/C [32]: 98%; viability, T/C [33]: 87.8%; viability, T/C [34]: 90.2%; viability, T/C [35]: 96.5%; viability, T/C [36]: 84.3%; viability, T/C [37]: 88.9%; viability, T/C [38]: 84.5%; viability, T/C [22]: 76.7%; viability, T/C [39]: 73.8%; viability, T/C [40]: 82.5%; viability, T/C [25]: 76.4%; viability, T/C [26]: 70.8%; viability, T/C [27]: 65.9%; viability, T/C [28]: 64.7% |
